This note sets out measurements from patent EP1724268A1, “COMPOUND HAVING TGF-BETA INHIBITORY ACTIVITY AND PHARMACEUTICAL COMPOSITION CONTAINING SAME” (KIRIN BEER KABUSHIKI KAISHA, priority 2004, dated 2005).

The subject of the assay is TGFβ signal. Put plainly: TGFβ signal inhibitory activity, (SBE)4-Luc reporter in A549 cells (Test Examples 1A and 1B). It is filed as cell-based, human. The settings on record: Homo sapiens, A549, read-out: TGFβ inhibition rate, %. The essentials: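 Compounds at 3 µM and 10 µM (some 1 µM) were added with 2 ng/ml TGFβ-1 to A549 cells stably expressing an SBE-driven luciferase, then cultured 4 hr. Chemiluminescent luciferase signal gave % inhibition versus TGFβ-alone and no-TGFβ controls.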

The mark [1] stands for this setting: 3 µM, compounds of Reference Examples (Test Example 1B).
Setting [2] is: 10 µM, compounds of Reference Examples (Test Example 1B).
The mark [3] stands for this setting: test compound 3 µM, Reference Examples, Table 1B.
Where [4] appears, read: test compound 10 µM, Reference Examples, Table 1B.
The mark [5] stands for this setting: test compound 3 µM, TGFβ-1 2 ng/ml, 4 hr, Table 1A.
The mark [6] stands for this setting: test compound 10 µM, TGFβ-1 2 ng/ml, 4 hr, Table 1A.

Like-named read-outs stand apart in the source and are kept apart here.

As for `COc1cc2nccc(Oc3ccc(C)cc3-c3ccccn3)c2cc1OC` [r167], the inhibition at 3 µM under setting [1] was found to be 98%. In addition, the inhibition at 10 µM under setting [2] was found to be 100%.

In the case of `COc1cc2nccc(Oc3cc4ccccc4nc3-c3cccc(CO)c3)c2cc1OC` [Compound r284, {3-[3-(6,7-Dimethoxy-quinolin-4-yloxy)-quinolin-2-yl]-phenyl}-methanol], the inhibition at 3 µM under setting [1] stood at 96%. For the same molecule, the inhibition at 10 µM under setting [2] was 100%.

As to `COc1cc2c(Oc3cc(C)c(C)nc3-c3cccnc3)ccnc2cc1OCC(O)CO` (stereo not drawn) [Compound r349], under setting [1], the inhibition at 3 µM turned out to be 96%.

For `COc1cc2nccc(Oc3ccc(C)nc3-c3ccc(N(C)C)cc3)c2cc1OC` [Compound r247], the inhibition at 3 µM under setting [1] stood at 93%. For the same molecule, the inhibition at 10 µM under setting [2] was 100%.

On to `COc1cc2nccc(Oc3ccc(F)cc3C(C)=O)c2cc1OC` [r33], for which, under setting [3], the inhibition at 3 µM was 27%. For the same molecule, the inhibition at 10 µM under setting [4] was determined as 94%.

`CCOC(=O)c1cc(OC)ccc1Oc1ccnc2cc(OC)c(OC)cc12` [Compound r91]: under setting [3], the inhibition at 3 µM is 96%. For the same molecule, the inhibition at 10 µM under setting [4] is 100%.

In the case of `COc1cc2c(Oc3ccc(C)cc3C(=O)c3ccccc3)ccnc2cc1OCCCn1ccnc1` [r140], the inhibition at 3 µM under setting [3] was found to be 85%. Moreover, under setting [4], the inhibition at 10 µM was 100%.

Consider `COc1cc2nccc(Oc3cc4c(cc3C(C)=O)CCC4)c2cc1OC` [r182], for which the inhibition at 3 µM under setting [1] stood at 57%. In addition, under setting [2], the inhibition at 10 µM worked out at 96%.

With `Cc1ccc(Oc2ccnc3ccc(OCC4CCC4)cc23)c(-c2ncccn2)n1` [Compound 213, 6-Cyclobutylmethoxy-4-(6-methyl-2-pyrimidin-2-yl-pyridin-3-yloxy)-quinoline], the inhibition at 3 µM under setting [5] is 98%.

Consider `COc1cc2c(Oc3ccc(C)cc3C(=O)c3ccccc3)ccnc2cc1OCCCCN1CCC(N2CCCCC2)CC1` [Compound r146], for which the inhibition at 3 µM under setting [3] was 64%. In addition, the inhibition at 10 µM under setting [4] amounted to 100%.

With `COc1cc2nccc(Oc3cc(C)c(C)nc3-c3ccccn3)c2cc1F` [Compound 110, 3-(6-Fluoro-7-methoxy-quinolin-4-yloxy)-5,6-dimethyl-[2,2']bipyridine], under setting [5], the inhibition at 3 µM worked out at 100%. For the same molecule, the inhibition at 10 µM under setting [6] came to 100%.

`COc1cc2c(Oc3cc4ccccc4nc3C(C)=O)ccnc2cc1OCCN1CCCC(O)C1` (stereo not drawn) [Compound r393]: the inhibition at 3 µM under setting [1] was found to be 100%.

As for `COc1cc2c(Oc3cc4ccccc4nc3C)ccnc2cc1OCC(CO)(CO)CBr` [Compound r389], under setting [1], the inhibition at 3 µM was found to be 100%. In addition, the inhibition at 10 µM under setting [2] came out at 100%.

In the case of `COc1cc2c(Oc3cc(C)c(C)nc3-c3cccnc3)ccnc2cc1OCC(CO)CO` [Compound r350], under setting [1], the inhibition at 3 µM was found to be 96%.

For `COC(=O)c1cc2nccc(Oc3cc4cccnc4nc3-c3ccccc3)c2cc1OC` [Compound 116, Methyl 6-methoxy-4-(2-phenyl-[1,8]naphthyridin-3-yloxy)-quinoline-7-carboxylate], under setting [5], the inhibition at 3 µM turned out to be 99%. Also, the inhibition at 10 µM under setting [6] amounted to 100%.

Regarding `COc1cc2nccc(Oc3cc4cccnc4nc3-c3ccccc3)c2cc1OCc1ccccc1` [Compound 123, 3-(6-Benzyloxy-7-methoxy-quinolin-4-yloxy)-2-phenyl-[1,8]naphthyridine], the inhibition at 3 µM under setting [5] was 99%. Moreover, under setting [6], the inhibition at 10 µM was 100%.

Turning to `COc1cc2c(Oc3cc(C)c(C)nc3-c3ccccn3)ccnc2cc1OCC(O)CO` (stereo not drawn) [Compound r342], the inhibition at 3 µM under setting [1] was determined as 89%.

Regarding `COc1cc2c(Oc3cc(C)c(C)nc3-c3ccccn3)ccnc2cc1OCC1CO1` (stereo not drawn) [Compound r341], the inhibition at 3 µM under setting [1] was found to be 99%.

For `Cc1cc(Oc2ccnc3cc(-c4cc5ccccc5o4)ccc23)c(-c2ccccn2)nc1C` [Compound 173, 3-(7-Benzofuran-2-yl-quinolin-4-yloxy)-5,6-dimethyl-[2,2']bipyridine], the inhibition at 3 µM under setting [5] came to 57%. For the same molecule, the inhibition at 10 µM under setting [6] came to 92%.

As for `Cc1ccc(-c2ccc3c(Oc4cc(C)c(C)nc4-c4ccccn4)ccnc3c2)cc1` [Compound 20, 5,6-Dimethyl-3-(7-p-tolyl-quinolin-4-yloxy)-[2,2']bipyridine], the inhibition at 3 µM under setting [5] is 90%. Under setting [6], the inhibition at 10 µM worked out at 100%.

On to `COc1cc2nccc(Oc3cc4cccnc4nc3-c3ccccc3)c2cc1C(N)=O` [Compound 66, 7-Methoxy-4-(2-phenyl-[1,8]naphthyridin-3-yloxy)-quinoline-6-carboxylic acid amide], for which, under “test compound 1 µM, TGFβ-1 2 ng/ml, 4 hr, Table 1A”, the inhibition at 1 µM was found to be 97%. Also, the inhibition at 3 µM under setting [5] was determined as 100%.

For the molecule `COc1cc2nccc(Oc3cc(C)c(C)nc3-c3cc(C)ccn3)c2cc1OC` [Compound r273], the inhibition at 3 µM under setting [1] is 99%. The inhibition at 10 µM under setting [2] came to 100%.

For `COc1cc2nccc(Oc3ccc(C)nc3/C=C/c3ccccc3)c2cc1OC` [r216], the inhibition at 3 µM under setting [1] turned out to be 22%. The inhibition at 10 µM under setting [2] is 73%.

Regarding `COc1cc2nccc(Oc3cc(Cl)ccc3C(C)=O)c2cc1OC` [r181], under setting [1], the inhibition at 3 µM worked out at 42%. The inhibition at 10 µM under setting [2] was found to be 82%.

In the case of `COc1ccc(Oc2ccnc3cc(OC)c(OC)cc23)c(C(=O)c2ccccc2)c1` [r74], under setting [3], the inhibition at 3 µM was determined as 27%. Moreover, the inhibition at 10 µM under setting [4] was 84%.

In the case of `Cc1cc(Oc2ccnc3ccncc23)c(-c2ccccn2)nc1C` [Compound 31, 4-(5,6-Dimethyl-[2,2']bipyridin-3-yloxy)-[1,6]naphthyridine], the inhibition at 3 µM under setting [5] is 85%. For the same molecule, under setting [6], the inhibition at 10 µM came to 99%.

Turning to `COc1cc2c(Oc3cc(C)c(C)nc3-c3cccc(C)n3)ccnc2cc1OCCCO` [Compound r447], the inhibition at 3 µM under setting [1] was 94%. In addition, the inhibition at 10 µM under setting [2] was 100%.

Regarding `COc1cc2nccc(Oc3cc4cccnc4nc3-c3ccccc3)c2cc1O` [Compound 124, 7-Methoxy-4-(2-phenyl-[1,8]naphthyridin-3-yloxy)-quinolin-6-ol], the inhibition at 3 µM under setting [5] was determined as 99%. Also, the inhibition at 10 µM under setting [6] was found to be 100%.

On to `COc1cc2c(Oc3cc(C)c(C)nc3-c3ccccc3)ccnc2cc1OCC(CO)CO` [Compound r336], for which the inhibition at 3 µM under setting [1] amounted to 100%.

As for `COc1cc2nccc(Oc3cc(C)c(C)cc3C(C)=NNc3ccccn3)c2cc1OC` [Compound r194], the inhibition at 3 µM under setting [1] turned out to be 47%. For the same molecule, the inhibition at 10 µM under setting [2] was 94%.

For the molecule `COc1cc2nccc(Oc3ccc(C)nc3-c3cc(C)n(C)n3)c2cc1OC` [Compound r256, 4-[2-(1,5-Dimethyl-1H-pyrazol-3-yl)-6-methyl-pyridin-3-yloxy]-6,7-dimethoxy-quinoline], the inhibition at 3 µM under setting [1] was 98%. For the same molecule, the inhibition at 10 µM under setting [2] stood at 100%.

Turning to `COc1cc2c(Oc3ccc(C)cc3C(=O)c3ccccc3)ccnc2cc1OCCCCN1CCNCC1` [Compound r147], the inhibition at 3 µM under setting [3] was found to be 98%. Further, the inhibition at 10 µM under setting [4] amounted to 100%.

`COc1cc2nccc(Oc3ccc(C)cc3C(=O)C(C)C)c2cc1OC` [Compound r53]: the inhibition at 3 µM under setting [3] came to 97%. For the same molecule, the inhibition at 10 µM under setting [4] turned out to be 100%.

Take `CCCCOc1ccc(Oc2ccnc3cc(OC)c(OC)cc23)c(C(C)=O)c1` [r180]: the inhibition at 3 µM under setting [1] is -2%. The inhibition at 10 µM under setting [2] was found to be 55%.

With `Cc1ccc(-c2nc(C)c(C)cc2Oc2ccnc3cc(Cl)ccc23)nc1` [Compound r432], under setting [1], the inhibition at 3 µM came out at 99%. Also, the inhibition at 10 µM under setting [2] stood at 100%.

What is called inhibition is the change of the read-out against control, counted positive when it falls.
